These results are taken from patent publication US8460274B2, “Long term drug delivery devices with polyurethane-based polymers and their manufacture” (Endo Pharmaceuticals Solutions Inc., priority 2008, dated 2013).

For data set [1] the following is noted: cited from earlier work.
Data set [2] can be described thus: In vitro elution of naltrexone from Tecophilic HP-60D-35 polyurethane implants (Example 2). As to conditions: HP-60D-35 implants -1, -2, -3, in vitro. Format: physicochemical. The procedure:
HP-60D-35 is extruded to tubes with thickness of 0.30 mm with inside diameter of 1.75 mm. The tubes are then cut into 32 mm in length. One side of the tube is sealed with heat using a heat sealer. The sealing time is less than one minute. Six pellets of naltrexone are loaded into the tubes and both open sides of the tubes are sealed with heat. Each pellet weighs approximately 15.0 mg for a total of 91 mg. The second end open of the tube is sealed with heat in the same way as for the first end. The loaded implant is then conditioned and primed. The conditioning takes place at room temperature in a 0.9% saline solution for one week. Upon completion of the conditioning, the implant undergoes priming. The priming takes place at room temperatures in a 1.8% saline solution for one week. Each implant is tested in vitro in a medium selected to mimic the pH found in the human body. The temperature of the selected medium was kept at approximately 37° C. during the testing. The release rates are shown on FIG. 5 and Table 3.

Data set [3] can be described thus: Release rates of active agents from Tecophilic, Tecoflex and Carbothane polyurethane implants (Example 6). Format: physicochemical.
Text: The release rates have been normalized to surface area of the implant, thereby adjusting for slight differences in the size of the various implantable devices. The active agents were selected to cover a range of solubilities (as indicated by the varying Log P values; for the purposes of the data provided, a Log P value of greater than about 2.0 is considered to be not readily soluble in aqueous solution) and molecular weights. The polyurethanes were selected to have varying affinities for water soluble active agents and varying flexibility (as indicated by the variation in flex modulus).
For data set [4] the following is noted: cited from earlier work. The source holds these as a separate data set.
For data set [5] the following is noted: subcutaneous implants, end of the third month.
[6] abbreviates: Carbothane PC-3595A, F.M.: 4,500.

Several values for one entry are separate records, joined by “and”; a condition that tells them apart may be missing. Equal entries are not always repeated.

As for `O=C1CC[C@@]2(O)[C@H]3Cc4ccc(O)c5c4[C@@]2(CCN3CC2CC2)[C@H]1O5` [Naltrexone Base], the “Log P” value in data set [1] is reported as “Log P = 2.07”. For the same compound, the “Naltrexone Elution Rates” value in data set [2] (week 1 of release) was 1529.26 µg/day and 767.38 µg/day and 1400.95 µg/day; in data set [2] (week 2 of release) it was 1511.77 µg/day and 1280.03 µg/day and 1498.86 µg/day; in data set [2] (week 3 of release) it was 1456.01 µg/day and 1635.97 µg/day and 1449.49 µg/day; in data set [2] (week 4 of release), 1378.27 µg/day and 1607.13 µg/day and 1500.42 µg/day; in data set [2] (week 5 of release), 1393.05 µg/day and 1614.52 µg/day and 1558.37 µg/day; in data set [2] (week 6 of release), 1321.71 µg/day and 1550.39 µg/day and 1436.03 µg/day. In addition, the “Naltrexone Elution Rates” value in data set [2] (week 7 of release) is 1273.07 µg/day and 1424.24 µg/day and 1300.73 µg/day; in data set [2] (week 8 of release), 1172.82 µg/day and 1246.48 µg/day and 1221.57 µg/day. For the same compound, the non-normalized release rate in data set [3] (setting [6]) amounted to 25 µg/day; in data set [3] (Tecoflex EG 100A, F.M.: 10,000) it was 55 µg/day; in data set [3] (Tecophilic HP-60D-05, 5.5% EWC) it was 50 µg/day; in data set [3] (Tecophilic HP-60D-10, 8.7% EWC), 500 µg/day; in data set [3] (Tecophilic HP-60D-20, 15% EWC), 1000 µg/day; in data set [3] (Tecophilic HP-60D-35, 24% EWC), 1500 µg/day. For the same compound, in data set [3] (Tecophilic HP-60D-60, 31% EWC), the non-normalized release rate came to 2200 µg/day. In addition, the “release rate normalized to surface area of the implant” value (“release rate normalized” below) in data set [3] (setting [6]) was 5.5 μg/day/cm^2; in data set [3] (Tecoflex EG 100A, F.M.: 10,000), 23 μg/day/cm^2; in data set [3] (Tecophilic HP-60D-05, 5.5% EWC) it was 12.7 μg/day/cm^2; in data set [3] (Tecophilic HP-60D-10, 8.7% EWC) it was 127 μg/day/cm^2; in data set [3] (Tecophilic HP-60D-20, 15% EWC) it was 263 μg/day/cm^2; in data set [3] (Tecophilic HP-60D-35, 24% EWC), 704 μg/day/cm^2. Moreover, in data set [3] (Tecophilic HP-60D-60, 31% EWC), the “release rate normalized” value is 883 μg/day/cm^2.

As for `C[C@@H](O)[C@@H]1NC(=O)[C@H](CCCCN)NC(=O)[C@@H](Cc2c[nH]c3ccccc23)NC(=O)[C@H](Cc2ccccc2)NC(=O)[C@@H](NC(=O)[C@H](N)Cc2ccccc2)CSSC[C@@H](C(=O)N[C@H](CO)[C@@H](C)O)NC1=O` [Octreotide Acetate], the “Relative Water Solubility” value in data set [4] was “Very soluble,”. Also, the non-normalized release rate was 30 µg/day in data set [3] (Tecoflex EG-85A, F.M.: 2,300); 0 µg/day in data set [3] (Tecophilic HP-60D-05, 5.5% EWC); 25 µg/day in data set [3] (Tecophilic HP-60D-10, 8.7% EWC); 1500 µg/day in data set [3] (Tecophilic HP-60D-20, 15% EWC); 4000 µg/day in data set [3] (Tecophilic HP-60D-35, 24% EWC). For the same compound, the “release rate normalized” value came to 16 μg/day/cm^2 in data set [3] (Tecoflex EG-85A, F.M.: 2,300); 0 μg/day/cm^2 in data set [3] (Tecophilic HP-60D-05, 5.5% EWC); 11 μg/day/cm^2 in data set [3] (Tecophilic HP-60D-10, 8.7% EWC); 758 μg/day/cm^2 in data set [3] (Tecophilic HP-60D-20, 15% EWC); 2022 μg/day/cm^2 in data set [3] (Tecophilic HP-60D-35, 24% EWC).

As to `Cc1nc2n(c(=O)c1CCN1CCC(c3noc4cc(F)ccc34)CC1)CCCC2` [Risperidone], in data set [1], the “Log P” value is “Log P = 3.28”. The “risperidone level in the dog plasma” value in data set [5] is listed as “still present at a high level”. The non-normalized release rate was 40 µg/day in data set [3] (Carbothane PC-3575A, F.M.: 620); 11 µg/day in data set [3] (setting [6]); 8 µg/day in data set [3] (Tecoflex EG 100A, F.M.: 10,000); 2 µg/day in data set [3] (Tecoflex EG-65D, F.M.: 37,000); 150 µg/day in data set [3] (Tecoflex EG-85A, F.M.: 2,300); 150 µg/day in data set [3] (Tecophilic HP-60D-20, 15% EWC).
